Experimental data taken from patent US20250197387A1, “BCL-XL DEGRADERS AND USES THEREOF” (Kymera Therapeutics, Inc., priority 2021, published 2025).

Experiments:
Type in all cases: cell-based
BCL-XL [1] = molecular target: T1, BCL-XL (Homo sapiens, UniProt Q07817); assay: BCL-XL degradation assay, western blot in MOLT-4 cells, 16 h; details: western blot, MOLT-4 cells, 16 h; for Dmax: read-out: Bcl-xL WB in MOLT-4 degradation 16 h: Average Dmax %; for DC50: read-out: Bcl-xL WB in MOLT-4 degradation 16 h: Mean external-Abs DC50
T1 construct: endogenous in cells; host or cells: MOLT-4
Outline: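 MOLT-4 cells treated with compounds at 0.02-10 μM final for 16 hr at 37° C; lysates analysed by western blot with anti-BCL-xL, beta-actin and GAPDH loading controls, infrared imaging and densitometry; DC50 and Dmax % reported as letter codes.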

BCL-XL [2] = molecular target: T1, BCL-XL; assay: Bcl-xL ELISA degradation in MOLT-4 cells, 6 h; details: for DC50: read-out: Bcl-xL ELISA in MOLT-4 degradation 6 h: Mean external-Abs DC50
Procedure: The letter codes for BCL-XL DC50 include: A (<0.01 μM); B (0.01-0.1 μM); C (>[…]); D (>0.5-1.0 μM); and E (>1.0 μM). The letter codes for Dmax % include A (>75%); B (50 to 75%); C (<50%).

MOLT-4 cells = assay: CTG (CellTiter-Glo) cell viability assay, MOLT-4; details: Homo sapiens, MOLT-4, 72 h, 3 day incubation, read-out: CTG Cell Viability Assay - MOLT-4 3 day: Average external-IC50
Outline: (§1)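 Luminescence from CellTiter-Glo, read after 3 days of compound exposure at 37 °C, gave viability; IC50 values came from three-parameter logistic curves. Cells were plated at 10,000 per well and dosed over nine 1:3 steps topping at 10 μM.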

Caki-2 cells = assay: CTG (CellTiter-Glo) cell viability assay, Caki-2; details: Homo sapiens, 72 h, 3 day incubation, read-out: CTG Chempartner - Caki-2 3 day: Average external-IC50
Outline: as §1

T1 sequence (Q07817 whole entry): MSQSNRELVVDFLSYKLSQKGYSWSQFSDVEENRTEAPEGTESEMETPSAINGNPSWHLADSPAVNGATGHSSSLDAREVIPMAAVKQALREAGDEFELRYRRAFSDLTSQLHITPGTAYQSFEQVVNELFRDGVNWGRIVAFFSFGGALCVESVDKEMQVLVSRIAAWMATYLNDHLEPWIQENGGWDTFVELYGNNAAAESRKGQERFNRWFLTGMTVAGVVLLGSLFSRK

Structure (SMILES)	Dmax (BCL-XL [1]) [%]	DC50 (BCL-XL [1]) [µM]	Dmax (BCL-XL [2]) [%]	DC50 (BCL-XL [2]) [µM]	IC50 (MOLT-4 cells) [µM]	IC50 (Caki-2 cells) [µM]
Cc1ncsc1-c1ccc([C@H](C)NC(=O)[C@@H]2C[C@@H](O)CN2C(=O)[C@@H](NC(=O)CCCCCCNC(=O)c2nc(N3CCc4cccc(C(=O)Nc5nc6ccccc6s5)c4C3)ccc2-c2cnn(CC3CCCCC3)c2C)C(C)(C)C)cc1 [I-96]	> 75	0.01 to 0.1	50 to 75	0.01 to 0.1	0.1 to 1	> 10
Cc1cc(N(C)c2ccc(-c3cnn(CC4CCCCC4)c3C)c(C(=O)NS(=O)(=O)CCCCCC(=O)N[C@H](C(=O)N3C[C@H](O)C[C@H]3C(=O)N[C@@H](C)c3ccc(-c4scnc4C)cc3)C(C)(C)C)n2)nnc1Nc1nc2ccccc2s1 [I-120]	> 75	0.01 to 0.1	–	–	0.1 to 1	> 10
Cc1ncsc1-c1ccc(CNC(=O)[C@@H]2C[C@@H](O)CN2C(=O)[C@@H](NC(=O)C2(F)CC2)C(C)(C)C)c(OCCCCCS(=O)(=O)NC(=O)c2nc(N3CCc4cccc(C(=O)Nc5nc6ccccc6s5)c4C3)ccc2-c2cnn(CC34CC5CC(CC(C5)C3)C4)c2C)c1 [I-121]	> 75	< 0.01	> 75	0.01 to 0.1	< 0.1	0.1 to 1
Cc1ncsc1-c1ccc([C@H](C)NC(=O)[C@@H]2C[C@@H](O)CN2C(=O)[C@@H](NC(=O)CCCCCCCS(=O)(=O)NC(=O)c2nc(N3CCc4cccc(C(=O)Nc5nc6cccnc6s5)c4C3)ccc2-c2cnn(CC34CC5CC(CC(C5)C3)C4)c2C)C(C)(C)C)cc1 [I-141]	> 75	< 0.01	–	–	< 0.1	1 to 10
Cc1ncsc1-c1ccc([C@H](C)NC(=O)[C@@H]2C[C@@H](O)CN2C(=O)[C@@H](NC(=O)c2ccc(CCS(=O)(=O)NC(=O)c3nc(N4CCc5cccc(C(=O)Nc6nc7ccccc7s6)c5C4)ccc3-c3cnn(CC4CCCCC4)c3C)cc2)C(C)(C)C)cc1 [I-143]	> 75	< 0.01	–	–	< 0.1	1 to 10
Cc1ncsc1-c1ccc([C@H](C)NC(=O)[C@@H]2C[C@@H](O)CN2C(=O)[C@@H](NC(=O)N2CC3(C2)CN(c2ccc(S(=O)(=O)NC(=O)c4nc(N5CCc6cccc(C(=O)Nc7nc8ccccc8s7)c6C5)ccc4-c4cnn(CC5CCCCC5)c4C)cc2)C3)C(C)(C)C)cc1 [I-196]	50 to 75	< 0.01	–	–	0.1 to 1	1 to 10
Cc1cc([C@@H](C(=O)N2C[C@H](O)C[C@H]2C(=O)NCc2ccc(-c3scnc3C)cc2OCCCCCCNC(=O)c2nc(N3CCc4cccc(C(=O)Nc5nc6ccccc6s5)c4C3)ccc2-c2cnn(CC3CCCCC3)c2C)C(C)C)on1 [I-198]	> 75	0.01 to 0.1	–	–	< 0.1	> 10
Cc1ncsc1-c1ccc([C@H](CC(=O)NCCCCCNC(=O)c2nc(N3CCc4cccc(C(=O)Nc5nc6ccccc6s5)c4C3)ccc2-c2cnn(CC3CCCCC3)c2C)NC(=O)[C@@H]2C[C@@H](O)CN2C(=O)[C@@H](NC(=O)C2(F)CC2)C(C)(C)C)cc1 [I-199]	> 75	0.01 to 0.1	–	–	0.1 to 1	> 10
Cc1ncsc1-c1ccc(CNC(=O)[C@@H]2C[C@@H](O)CN2C(=O)[C@@H](NC(=O)C2(F)CC2)C(C)(C)C)c(OCCN2CCN(C(=O)c3nc(N4CCc5cccc(C(=O)Nc6nc7ccccc7s6)c5C4)ccc3-c3cnn(CC4CCCCC4)c3C)CC2)c1 [I-201]	> 75	0.01 to 0.1	–	–	0.1 to 1	> 10
Cc1ncsc1-c1ccc([C@H](C)NC(=O)[C@@H]2C[C@@H](O)CN2C(=O)[C@@H](NC(=O)CCCCCCCCC(=O)N(C)CC#Cc2ccc(OCCCc3sc(N4CCc5cccc(C(=O)Nc6nc7ccccc7s6)c5C4)nc3C(=O)O)c(F)c2)C(C)(C)C)cc1 [I-384]	> 75	< 0.01	–	–	0.1 to 1	1 to 10
C#Cc1ccc([C@H](CO)NC(=O)[C@@H]2C[C@@H](O)CN2C(=O)[C@@H](NC(=O)CCCCCS(=O)(=O)NC(=O)c2nc(N(C)c3cc(C)c(Nc4nc5ccccc5s4)nn3)ccc2-c2cnn(CC34CC5CC(CC(C5)C3)C4)c2C)C(C)(C)C)cc1 [I-474]	–	–	> 75	< 0.01	< 0.1	> 10
C#Cc1ccc([C@H](C)NC(=O)[C@@H]2C[C@@H](O)CN2C(=O)[C@@H](NC(=O)CCCCCS(=O)(=O)NC(=O)c2nc(N(C)c3cc(C)c(Nc4nc5ccccc5s4)nn3)ccc2-c2cnn(CC34CC5CC(CC(C5)C3)C4)c2C)C(C)(C)C)c(O)c1 [I-475]	–	–	> 75	< 0.01	< 0.1	> 10
C#Cc1ccc([C@H](COC)NC(=O)[C@@H]2C[C@@H](O)CN2C(=O)[C@@H](NC(=O)CCCCCS(=O)(=O)NC(=O)c2nc(N(C)c3cc(C)c(Nc4nc5ccccc5s4)nn3)ccc2-c2cnn(CC34CC5CC(CC(C5)C3)C4)c2C)C(C)(C)C)cc1 [I-476]	–	–	> 75	< 0.01	< 0.1	> 10
C#Cc1ccc([C@H](C)NC(=O)[C@@H]2C[C@@H](O)CN2C(=O)[C@@H](NC(=O)CCCCCS(=O)(=O)NC(=O)c2nc(N(C)c3cc(C)c(Nc4nc5ccccc5s4)nn3)ccc2-c2cnn(CC34CC5CC(CC(C5)C3)C4)c2C)C(C)(C)C)c(OCCO)c1 [I-477]	–	–	> 75	< 0.01	< 0.1	> 10
C#Cc1ccc([C@H](COC)NC(=O)[C@@H]2C[C@@H](O)CN2C(=O)[C@@H](NC(=O)CCCCCS(=O)(=O)NC(=O)c2nc(N3CCc4cccc(C(=O)Nc5nc6cccnc6s5)c4C3)ccc2-c2cnn(CC3CCCCC3)c2C)C(C)(C)C)cc1 [I-478]	–	–	> 75	< 0.01	< 0.1	> 10
C#Cc1ccc([C@H](C)NC(=O)[C@@H]2C[C@@H](O)CN2C(=O)[C@@H](NC(=O)CCCCCS(=O)(=O)NC(=O)c2nc(N3CCc4cccc(C(=O)Nc5nc6cccnc6s5)c4C3)ccc2-c2cnn(CC3CCCCC3)c2C)C(C)(C)C)c(O)c1 [I-479]	–	–	> 75	< 0.01	< 0.1	> 10
C#Cc1ccc([C@H](C)NC(=O)[C@@H]2C[C@@H](O)CN2C(=O)[C@@H](NC(=O)CCCCCS(=O)(=O)NC(=O)c2nc(N3CCc4cccc(C(=O)Nc5nc6cccnc6s5)c4C3)ccc2-c2cnn(CC3CCCCC3)c2C)C(C)(C)C)c(OCCO)c1 [I-480]	–	–	> 75	< 0.01	< 0.1	> 10
C#Cc1ccc(C2(NC(=O)[C@@H]3C[C@@H](O)CN3C(=O)[C@@H](NC(=O)CCCCCS(=O)(=O)NC(=O)c3nc(N(C)c4cc(C)c(Nc5nc6ccccc6s5)nn4)ccc3-c3cnn(CC45CC6CC(CC(C6)C4)C5)c3C)C(C)(C)C)CC2)cc1 [I-481]	–	–	> 75	< 0.01	< 0.1	> 10
C#Cc1ccc(C2(NC(=O)[C@@H]3C[C@@H](O)CN3C(=O)[C@@H](NC(=O)CCCCCS(=O)(=O)NC(=O)c3nc(N4CCc5cccc(C(=O)Nc6nc7cccnc7s6)c5C4)ccc3-c3cnn(CC4CCCCC4)c3C)C(C)(C)C)CC2)cc1 [I-482]	–	–	> 75	< 0.01	< 0.1	> 10
COc1nn(C)c2ccc(CNC(=O)[C@@H]3C[C@@H](O)CN3C(=O)[C@@H](NC(=O)CCCCCS(=O)(=O)NC(=O)c3nc(N4CCc5cccc(C(=O)Nc6nc7cccnc7s6)c5C4)ccc3-c3cnn(CC4CCCCC4)c3C)C(C)(C)C)cc12 [I-483]	–	–	> 75	0.01 to 0.1	< 0.1	> 10
Cc1cc(N(C)c2ccc(-c3cnn(CC45CC6CC(CC(C6)C4)C5)c3C)c(C(=O)NS(=O)(=O)CCCCCC(=O)N[C@H](C(=O)N3C[C@H](O)C[C@H]3C(=O)NCc3ccc4c(c3)c(C)nn4C)C(C)(C)C)n2)nnc1Nc1nc2ccccc2s1 [I-484]	–	–	> 75	< 0.01	< 0.1	> 10
C#Cc1ccc([C@H](CO)NC(=O)[C@@H]2C[C@@H](O)CN2C(=O)[C@@H](NC(=O)CCCCCS(=O)(=O)NC(=O)c2nc(N3CCc4cccc(C(=O)Nc5nc6cccnc6s5)c4C3)ccc2-c2cnn(CC3CCCCC3)c2C)C(C)(C)C)cc1 [I-488]	–	–	> 75	0.01 to 0.1	< 0.1	> 10
COc1nn(C)c2ccc([C@H](C)NC(=O)[C@@H]3C[C@@H](O)CN3C(=O)[C@@H](NC(=O)CCCCCS(=O)(=O)NC(=O)c3nc(N4CCc5cccc(C(=O)Nc6nc7cccnc7s6)c5C4)ccc3-c3cnn(CC4CCCCC4)c3C)C(C)(C)C)cc12 [I-489]	–	–	> 75	0.01 to 0.1	< 0.1	> 10
COc1nn(C)c2ccc([C@@H](C)NC(=O)[C@@H]3C[C@@H](O)CN3C(=O)[C@@H](NC(=O)CCCCCS(=O)(=O)NC(=O)c3nc(N4CCc5cccc(C(=O)Nc6nc7cccnc7s6)c5C4)ccc3-c3cnn(CC4CCCCC4)c3C)C(C)(C)C)cc12 [I-490]	–	–	> 75	0.1 to 0.5	0.1 to 1	> 10
